# Data as given in US20250269039A1, “THERAPEUTIC-OLIGONUCLEOTIDES ACTIVATED BY NUCLEASES” (priority 2020, published 2025).
# Like-named read-outs stand apart in the source and are kept apart here.
# Tests used:
# [1] = test system: S. aureus; assay: Growth inhibition curves / MICs in S. aureus cultures (strain not named or summary over strains); format: cell-based, Staphylococcus aureus; settings: for MIC: Staphylococcus aureus; for bacterial growth inhibition: S. aureus cultures, optical density (OD) over 18 h, FIG. 1b
# Protocol: (§1) Antimicrobial susceptibility testing. Minimal inhibitory concentrations (MIC) of all nucleoside analogues and TOUCANs against each bacteria strain were determined using broth microdilution method. A single colony obtained from overnight culture on tryptone soy agar with 5% defibrinated sheep blood was inoculated in cation-adjusted Mueller Hinton Broth and adjusted to 10^6 CFU/mL. TOUCANs were prepared in PBS+/+ (treatment) and serial dilutions were made in 96-well polystyrene round bottom microwell plates with 50 μL final volume for each concentration. PBS+/+ was used as untreated control. Next, 50 μL bacteria solutions were added to each well to a final bacteria concentration of 5×10^5 CFU/mL. Plates were incubated at 37° C. in Cytation 1 Cell Imaging Multimode Reader. Growth curves were obtained by measuring optical densities at 600 nm every 10 minutes for 18 hours using Cytation 1 Cell Imaging Multimode Reader. In addition, visual inspection of the plates was carried out after 18 hours and photographs were taken. MICs were defined as the lowest drug concentration in the microwell at which bacterial growth was not visible at the end of the incubation period. Besides MIC determination, specificity of TOUCAN 7mGe was also shown with subcultures on chromogenic media. For this purpose, 5 μL of different concentrations of each strain were inoculated onto CHROM agar Orientation Media (Becton Dickinson) and the bacterial growth of each bacteria strain tested was observed by naked eye after incubation at 37° C. for 24 hours. Finally, photographs of the chromogenic media were taken.
# [2] = test system: S. aureus ATCC 1707 (MRSA); assay: Broth microdilution MIC and growth inhibition; format: cell-based, Staphylococcus aureus; settings: Staphylococcus aureus, 18 h, TOUCAN as NA equivalent, read-out: MIC
# From the text: (§2) Bacteria strains. S. aureus NCTC 12493 (MRSA), S. aureus ATCC 29213 (MSSA), S. aureus ATCC 43300 (MRSA), S. aureus ATCC 1707 (MRSA), S. aureus ATCC 1717 (MRSA), S. aureus ATCC 1747 (MRSA), S. aureus ATCC 1761 (MRSA), S. aureus ATCC 1766 (MRSA), S. aureus ATCC 1768 (MRSA), S. epidermidis ATCC 35984, E. coli ATCC 25922, K. pneumoniae ATCC 13883, P. mirabilis ATCC 25933, S. enterica ATCC 14028 and P. aeruginosa ATCC 10145 strains were used in this study. Bacteria were initially inoculated onto tryptone soy agar with 5% defibrinated sheep blood (Thermo Fisher Scientific, Inc., Waltham, MA, USA) and incubated at 37° C. for 24 hours. Then, single colonies of each strain were transferred to tryptone soy broth (Thermo Fisher Scientific) for the nuclease activity assay or antimicrobial susceptibility testing, respectively.
# as §1
# [3] = test system: S. aureus ATCC 1717 (MRSA); assay: Broth microdilution MIC and growth inhibition; format: cell-based, Staphylococcus aureus; settings: Staphylococcus aureus, 18 h, TOUCAN as NA equivalent, read-out: MIC
# From the text: as §2, §1
# [4] = test system: S. aureus ATCC 1747 (MRSA); assay: Broth microdilution MIC and growth inhibition; format: cell-based, Staphylococcus aureus; settings: Staphylococcus aureus, 18 h, TOUCAN as NA equivalent, read-out: MIC
# From the text: as §2, §1
# [5] = test system: S. aureus ATCC 1761 (MRSA); assay: Broth microdilution MIC and growth inhibition; format: cell-based, Staphylococcus aureus; settings: Staphylococcus aureus, 18 h, TOUCAN as NA equivalent, read-out: MIC
# From the text: as §2, §1
# [6] = test system: S. aureus ATCC 1766 (MRSA); assay: Broth microdilution MIC and growth inhibition; format: cell-based, Staphylococcus aureus; settings: Staphylococcus aureus; S. aureus ATCC 1766 (MRSA); 18 h; TOUCAN as NA equivalent; read-out: MIC
# From the text: as §2, §1
# [7] = test system: S. aureus ATCC 1768 (MRSA); assay: Broth microdilution MIC and growth inhibition; format: cell-based, Staphylococcus aureus; settings: Staphylococcus aureus, 18 h, TOUCAN as NA equivalent, read-out: MIC
# From the text: as §2, §1
# [8] = test system: S. aureus ATCC 29213 (MSSA); assay: Broth microdilution MIC and growth inhibition; format: cell-based, Staphylococcus aureus; settings: for MIC: Staphylococcus aureus; for % Growth inhibition: mean ± SD, n = 3
# From the text: as §2, §1
# [9] = test system: S. aureus ATCC 43300 (MRSA); assay: Broth microdilution MIC and growth inhibition; format: cell-based, Staphylococcus aureus; settings: Staphylococcus aureus, 18 h, TOUCAN as NA equivalent, read-out: MIC
# From the text: as §2, §1
# [10] = test system: S. aureus NCTC 12493 (MRSA); assay: Broth microdilution MIC and growth inhibition; format: cell-based, Staphylococcus aureus; settings: for MIC: Staphylococcus aureus; for % Growth inhibition: mean ± SD, n = 3
# From the text: as §2, §1
# [11] = test system: S. epidermidis ATCC 35984; assay: Broth microdilution MIC and growth inhibition (control bacteria); format: cell-based, Staphylococcus epidermidis; settings: Staphylococcus epidermidis, ATCC35984; S. epidermidis ATCC 35984; 18 h; TOUCAN as NA equivalent; read-out: MIC
# From the text: as §2, §1
# [12] = test system: E. coli ATCC 25922; assay: as above; format: cell-based, Escherichia coli; settings: Escherichia coli, ATCC25922, 18 h, TOUCAN as NA equivalent, read-out: MIC
# From the text: as §2, §1
# [13] = test system: K. pneumoniae ATCC 13883; assay: as above; format: cell-based; settings: Klebsiella pneumoniae, ATCC13883, 18 h, TOUCAN as NA equivalent, read-out: MIC
# From the text: as §2, §1
# [14] = test system: P. aeruginosa ATCC 10145; assay: as above; format: cell-based; settings: Pseudomonas aeruginosa, ATCC10145, 18 h, TOUCAN as NA equivalent, read-out: MIC
# From the text: as §2, §1
# [15] = test system: S. enterica ATCC 14028; assay: as above; format: cell-based; settings: Salmonella enterica, ATCC14028, 18 h, TOUCAN as NA equivalent, read-out: MIC
# From the text: as §2, §1
# [16] = test system: P. mirabilis ATCC 25933; assay: as above; format: cell-based, Proteus mirabilis; settings: Proteus mirabilis, ATCC25933, 18 h, TOUCAN as NA equivalent, read-out: MIC
# From the text: as §2, §1
# [17] = test system: Pancreatic cancer cells (ASPC-1); assay: Anti-cancer drug susceptibility testing, pancreatic cancer cells, 72 h; format: cell-based; settings: 72 h cultures; Gemcitabine alone, TOUCAN 7mGe spiked with MN; FIG. 13
# Protocol: (§3) Anti-cancer drug susceptibility testing for TOUCAN 7mGe. Gemcitabine and equivalent 7mGe solutions were prepared as explained before. Then, 7mGe was pre-exposed to 10 μl of 10 U MN for 1 hour at 37° C. (7mGe+MN). 100 μl of both drugs (Gemcitabine and 7mGe+MN) were added to the related wells and serially diluted using PBS+/+making the final concentrations between 100-2 μg/μl. Breast cancer cells (MDAMB231) and Pancreatic cancer cells (ASPC-1) were prepared as 10.000 cells/ml and 100 μl cell suspensions were added to each well. The plate was incubated at 37° C. for 72 hours. At 48th hour of incubation, 100 μl CyQUANT® Direct Cell Proliferation Assay kit was added to each well. Cell counts and images were taken at the end of 72 hours incubation period using Cytation 1 Cell Imaging Multi-Mode Reader.
# [18] = test system: Breast cancer cells (MDAMB231); assay: Anti-cancer drug susceptibility testing, breast cancer cells, 72 h; format: cell-based; settings: 72 h of treatment; Gemcitabine alone, TOUCAN 7mGe spiked with MN; FIG. 14
# Protocol: as §3
# [19] = test system: S. aureus (MN+); assay: Nuclease activity assay with culture supernatants; format: biochemical, Staphylococcus aureus
# Protocol: (§4) Nuclease activity assay. Nuclease activity of different S. aureus strains was evaluated using the TTprobe and TTprobe 2, along with the S. epidermidis as negative control and Micrococcal Nuclease (MN) as positive control. Single colonies of each bacteria strain isolated on tryptone soy agar were transferred to 50 mL tryptone soy broth and incubated at 37° C. for 24 hours with 200 rpm shaking. After the incubation period, 100 μL volumes of liquid cultures were transferred to a fresh 50 mL tryptone soy broth (1/500 dilution) and incubated under the same conditions for 12 hours. Next, cultures were centrifuged at 4500 g for 30 minutes and the supernatants were used for the nuclease activity assay. Briefly, 8 μL of supernatants were mixed with 1 μL PBS+/+ and 1 μL TT probe. The reactions were incubated at 37° C. for 1 hour. Then, 290 μL of 10 mM EDTA in PBS−/− solution were added to stop the reaction and the final solution was divided into triplicate wells (95 μL each), in a black flat-bottom polystyrene plates (Thermo Scientific F96). Fluorescence intensity was acquired at 485/20 excitation and 528/20 emission filter pair using Cytation 1 Cell Imaging Multimode Reader (Biotek Instruments Inc., USA).
# [20] = test system: Staphylococcus epidermidis (MN-); assay: Nuclease activity assay with culture supernatants (negative control); format: biochemical; settings: S. epidermidis cultures; FIG. 3
# Protocol: as §4
# [21] = test system: Breast cancer cells (MDAMB231); assay: Anti-cancer drug susceptibility testing for TOUCAN 7mDx, breast cancer cells, 96 h; format: cell-based; settings: FIG. 15
# Protocol: Anti-cancer drug susceptibility testing for TOUCAN 7mDx. Doxorubicin and equivalent 7mDx solutions were prepared as explained before. Then, 7mDx was pre-exposed to 5 μl of 10 U MN for 1 hour at 37° C. (7mDx+MN). 100 μl of all drugs (Doxorubicin, 7mDx, and 7mDx+MN) were added to the related wells and serially diluted using PBS+/+making the final concentrations between 20-0.3 μg/μl. Breast cancer cells (MDAMB231) were prepared as 20.000 cells/ml and 100 μl cell suspensions were added to each well. The plate was incubated at 37° C. for 96 hours. At 48th hour of incubation, 100 μl CyQUANT® Direct Cell Proliferation Assay kit was added to each well. Cell counts and images were taken at the end of 96 hours incubation period using Cytation 1 Cell Imaging Multi-Mode Reader.
# [22] = Table 1, S. aureus ATCC 29213, read-out: MIC
# [23] = Table 1, S. aureus NCTC 12493, read-out: MIC
compound,measurement,setting,value
T-T-Ge-mU-mU-mU-mU [SDR probe],inhibition of bacterial growth (therapeutic efficacy),"[1]; combinations of the R-S-D moieties, FIG. 1c",30%
"Nc1ccn([C@@H]2O[C@H](CO)[C@@H](O)C2(F)F)c(=O)n1 [Gemcitabine, reference compound]",MIC,[2],8 ng/mL
same,MIC,[3],8 ng/mL
same,MIC,[4],8 ng/mL
same,MIC,[5],16 ng/mL
same,MIC,[6],8 ng/mL
same,MIC,[7],8 ng/mL
same,MIC,"[8]; S. aureus ATCC 29213 (MSSA), 18 h, TOUCAN as NA equivalent, read-out: MIC",4 ng/mL
same,MIC,[8]; [22],4 ng/mL
same,% Growth inhibition,"[8]; Table 1, S. aureus ATCC 29213",94.2 ± 0.04%
same,MIC,[9],4 ng/mL
same,MIC,"[10]; S. aureus NCTC 12493 (MRSA), 18 h, TOUCAN as NA equivalent, read-out: MIC",4 ng/mL
same,MIC,[10]; [23],4 ng/mL
same,% Growth inhibition,"[10]; Table 1, S. aureus NCTC 12493",93.7 ± 0.2%
same,MIC,[11],2 ng/mL
same,MIC,[12],> 40000 ng/mL
same,MIC,[13],> 40000 ng/mL
same,MIC,[14],> 40000 ng/mL
same,MIC,[15],> 40000 ng/mL
same,MIC,[16],> 40000 ng/mL
same,MIC,[1]; read-out: MIC values over all S. aureus strains tested,4 to 16 ng/mL
same,MIC,"[1]; S. aureus, strain not given, read-out: MIC",4 ng/mL
same,killing of pancreatic cancer cells (viability),[17],efficient in killing
same,therapeutic effect in breast cancer cells (viability),[18],clear therapeutic effect
FAM-mU-mU-mU-mU-T-T-mU-mU-mU-mU-TQ2 [TTprobe2],degradation by nucleases,"[19]; S. aureus cultures, FIG. 3",efficient degradation
same,degradation by nucleases,"[19]; all S. aureus strains used in the study, FIG. 4",efficiently
same,stability in presence of control bacteria,[20],rendered stable
O=c1[nH]c(=O)n([C@H]2C[C@H](O)[C@@H](CO)O2)cc1I [Idoxuridine],MIC,[8]; [22],> 40000 ng/mL
same,% Growth inhibition,"[8]; Table 1, S. aureus ATCC 29213",13.4 ± 3.4%
same,MIC,[10]; [23],> 40000 ng/mL
same,% Growth inhibition,"[10]; Table 1, S. aureus NCTC 12493",46.0 ± 0.6%
mU-mU-mU-mU-Ge-mU-mU-mU-mU [Ge-Control],bacterial growth inhibition,[1],low growth inhibition efficiency
Nc1ccn([C@@H]2O[C@H](CO)[C@@H](O)[C@@H]2O)c(=O)n1 [Cytarabine],MIC,[8]; [22],> 40000 ng/mL
same,% Growth inhibition,"[8]; Table 1, S. aureus ATCC 29213",16.3 ± 6.9%
same,MIC,[10]; [23],> 40000 ng/mL
same,% Growth inhibition,"[10]; Table 1, S. aureus NCTC 12493",39.4 ± 2.5%
"mU-mU-mU-mU-Ge-T-T-mU-mU-mU-mU (UUUUGTTUUUU; chemistry not given here) [GeTT, TOUCAN with Gemcitabine upstream of TT]",bacterial growth inhibition,[1],low growth inhibition efficiency
O=c1[nH]c(=O)n([C@H]2C[C@H](O)[C@@H](CO)O2)cc1C(F)(F)F [Trifluridine],MIC,[8],10000 ng/mL
same,% Growth inhibition,"[8]; Table 1, S. aureus ATCC 29213",89.0 ± 5.1%
same,MIC,[10],10000 ng/mL
same,% Growth inhibition,"[10]; Table 1, S. aureus NCTC 12493",88.5 ± 1.1%
Nc1ncnc2c1ncn2[C@@H]1O[C@H](CO)[C@@H](O)[C@@H]1O [Vidarabine],MIC,[8]; [22],> 40000 ng/mL
same,% Growth inhibition,"[8]; Table 1, S. aureus ATCC 29213",34.1 ± 0.8%
same,MIC,[10]; [23],40000 ng/mL
same,% Growth inhibition,"[10]; Table 1, S. aureus NCTC 12493",85.1 ± 0.8%
"mU-mU-mU-mU-T-T-Ge-mU-mU-mU-mU (UUUUTTGUUUU; chemistry not given here) [TTGe, TOUCAN with Gemcitabine downstream of TT]",bacterial growth inhibition,[1],around 20%
mU-mU-mU-mU-T-T-Dx [TOUCAN 7mDx],effect on viability of breast cancer cells,[21]; 7mDx alone (no nuclease),did not show a significant effect on viability
same,therapeutic efficacy in breast cancer cells (viability),[21]; 7mDx spiked with MN,remarkable therapeutic efficacy
